Data published in patent EP2135864A1, “5-(4-methanesulfonyl-phenyl)-thiazole derivatives for the treatment of acute and chronic inflammatory diseases” (FAES FARMA, S.A., priority 2008, dated 2009).

How the values were obtained:
Assay type in all cases: cell-based, human
IFN-gamma [1] = assay: IFN-gamma production by PBMC from healthy volunteers, CBA; conditions: 24 hours, mean ± standard error, n=13
Experimental: (§1) CBA protocol was followed according to the manufacturer's instructions. The election of microparticles was performed following the summary of Figure 1.
(§2) The acquisition on samples was performed with the BD FACS Array Bioanalyser System (FACSArray, Becton Dickinson, San José, CA, USA) and the analysis of the results was completed with the software FCAP Array (Becton Dickinson) in a PC computer.
(§3) Briefly, the experimental protocol consisted of a plate pre-washing out with Wash Buffer. After decantation, the mixture of capture microparticles was re-suspended in the vortex. Standards and samples were added in the adequate dilution. After permanent stirring incubation during 1 h, the PE detection reagent was added and incubated again during 2h at room temperature. After a washing-out, the acquisition was performed in the flow cytometer. Table 3. -Kit CBA Human Soluble Protein Multiplex Flex Set System.
PBMC (5 x 10^4 cells per well) from 13 healthy volunteers were cultured in duplicate in 200 µl of complete medium supplemented with the highest solvent concentration (10^-6 M), and 10^-6 M, 10^-7 M and 10^-8 M of compound 12 in the presence or absence, either of LPS (10 µg/ml), or anti-CD3 (12.5 ng/ml) + anti-CD28 (1/3x10^5), during 24 hours. Culture supernatants were frozen at -20°C and the concentration of IFN-gamma was quantified by BD FACS Array Bioanalyser by using CBA Flex Set (Becton Dickinson), specific to determine the concentration of IFN-gamma, following the manufacturer instructions.

IFN-gamma [2] = assay: IFN-gamma production by PBMC from patients with rheumatoid arthritis, CBA; conditions: 24 hours, mean ± standard error, n=8
Experimental: as §1, §2, §3
PBMC (5 x 10^4 cells/well) from 8 patients with rheumatoid arthritis were cultured in duplicate 200 µl of complete medium supplement with the highest solvent concentration (10^-6 M), and 10^-6 M, 10^-7 M and 10^-8 M of compound 12, in the presence and absence either of LPS (10 µg/ml), or anti-CD3 (12.5 ng/ml) + anti-CD28 (1/3x10^5), during 24 hours. Culture supernatants were frozen at -20°C and IFN-gamma concentration was assessed by BD FACS Array Bioanalyser by using CBA Flex Set, specific to determine IFN-gamma concentration, following the manufacturer instructions.

IL-8 = IL-8 production by PBMC from patients with rheumatoid arthritis, CBA; conditions: 24 hours, mean ± standard error, n=8
Experimental: as §1, §2, §3
The effect on IL-8 production by PBMC from patients with rheumatoid arthritis was also studied. PBMC (5 x 10^4 cells per well) from 8 patients with rheumatoid arthritis were cultured in duplicate in 200 µl of complete medium supplemented with the highest solvent concentration (10^-6 M), and 10^-6 M, 10^-7 M and 10^-8 M of compound 12, in the presence and in the absence of either LPS (10 µg/ml) or anti-CD3 (12.5 ng/ml) + anti-CD28 (1/3x10^5), during 24 hours. Culture supernatants were frozen at -20°C and IL-8 concentration was quantified by BD FACS Array Bioanalyser by using CBA Flex Set, specific to determine IL-8 concentration, following the manufacturer instructions.

IL-10 = IL-10 production by PBMC from healthy volunteers, CBA; conditions: 24 hours, mean ± standard error, n=13
Experimental: as §1, §2, §3
The effects of compound 12 on IL-10 production by the PBMC from healthy volunteers and patients with rheumatoid arthritis were investigated in the presence and absence of LPS stimulation and with the combination of monoclonal antibodies anti-CD3 and anti-CD28. PBMC (5 x 10^4 cells per well) from 13 healthy volunteers were cultured in duplicate 200 µl of complete medium supplemented with the highest solvent concentration (10^-6 M), and 10^-6 M, 10^-7 M and 10^-8 M of compound 12, in the presence and absence of either LPS (10 µg/ml) or anti-CD3 (12.5 ng/ml), + anti-CD28 (1/3x10^5), during 24 hours.
On the other hand, PBMC (5 x 10^4 cells per well) from 8 patients with rheumatoid arthritis were cultured in duplicate in 200 µl of complete medium supplemented with the highest solvent concentration (10^-6 M), and 10^-6 M, 10^-7 M and 10^-8 M of compound 12 in the presence and absence of either LPS (10 µg/ml) or anti-CD3 (12.5 ng/ml), + anti-CD28 (1/3x10^5), during 24 hours. Culture supernatants were frozen at -20°C and IL-10 concentration was assayed by BD FACS Array Bioanalyser by using CBA Flex Set, specific to determine IL-10 concentration, following the manufacturer instructions.

CD62L = assay: Shedding of CD62L in monocytes of PBMC, flow cytometry; conditions: monocytes of PBMC from healthy volunteers, mean ± standard error, n=10, vehicle 65.34±8.06

Cc1nc(OC2CCCC2)c(-c2ccc(S(C)(=O)=O)cc2)s1 [compound 12, 4-cyclopentyloxy-5-(4-methylsulfonyl-phenyl)-2-methylthiazole]
IFN-gamma production in PMBC from healthy volunteers (IFN-gamma [1]; LPS (10µg/ml), 10^-6 M, vehicle 860.42±105.00, p 0.011): 649.61±120.00 (0.011) pg/mL
IFN-gamma production in PMBC from healthy volunteers (IFN-gamma [1]; LPS (10µg/ml), 10^-7 M, vehicle 860.42±105.00, p 0.552): 919.53±130.00 (0.552) pg/mL
IFN-gamma production in PMBC from healthy volunteers (IFN-gamma [1]; LPS (10µg/ml), 10^-8 M, vehicle 860.42±105.00, p 0.382): 1049.85±230.00 (0.382) pg/mL
IFN-gamma production in PMBC from healthy volunteers (IFN-gamma [1]; anti-CD3 (12.5 ng/ml) + anti-CD28 (1/3x10^5), 10^-6 M, vehicle 11802.22±1300.00, p 0.019): 7927.17±1003.00 (0.019) pg/mL
IFN-gamma production in PMBC from healthy volunteers (IFN-gamma [1]; anti-CD3 (12.5 ng/ml) + anti-CD28 (1/3x10^5), 10^-7 M, vehicle 11802.22±1300.00, p 0.917): 11552.08±1600.00 (0.917) pg/mL
IFN-gamma production in PMBC from healthy volunteers (IFN-gamma [1]; anti-CD3 (12.5 ng/ml) + anti-CD28 (1/3x10^5), 10^-8 M, vehicle 11802.22±1300.00, p 0.196): 10254.66±1500.00 (0.196) pg/mL
IFN-gamma production in PMBC from healthy volunteers (IFN-gamma [1]; medium, 10^-6 M, vehicle 283.78±90.00, p 0.279): 189.72±40.00 (0.279) pg/mL
IFN-gamma production in PMBC from healthy volunteers (IFN-gamma [1]; medium, 10^-7 M, vehicle 283.78±90.00, p 0.807): 296.28±90.00 (0.807) pg/mL
IFN-gamma production in PMBC from healthy volunteers (IFN-gamma [1]; medium, 10^-8 M, vehicle 283.78±90.00, p 0.807): 279.16±60.00 (0.807) pg/mL
IFN-gamma production in PMBC from patients with rheumatoid arthritis (IFN-gamma [2]; LPS (10µg/ml), 10^-6 M, vehicle 461.14±85.00, p 0.484): 205.26±46.00 (0.484) pg/mL
IFN-gamma production in PMBC from patients with rheumatoid arthritis (IFN-gamma [2]; LPS (10µg/ml), 10^-7 M, vehicle 461.14±85.00, p 0.208): 146.50±33.00 (0.208) pg/mL
IFN-gamma production in PMBC from patients with rheumatoid arthritis (IFN-gamma [2]; LPS (10µg/ml), 10^-8 M, vehicle 461.14±85.00, p 0.889): 248.73±35.00 (0.889) pg/mL
IFN-gamma production in PMBC from patients with rheumatoid arthritis (IFN-gamma [2]; anti-CD3 (12.5 ng/ml) + anti-CD28 (1/3x10^5), 10^-6 M, vehicle 8406.18±1000.00, p 0.05): 5115.27±600.00 (0.05) pg/mL
IFN-gamma production in PMBC from patients with rheumatoid arthritis (IFN-gamma [2]; anti-CD3 (12.5 ng/ml) + anti-CD28 (1/3x10^5), 10^-7 M, vehicle 8406.18±1000.00, p 0.05): 6411.71±700.00 (0.05) pg/mL
IFN-gamma production in PMBC from patients with rheumatoid arthritis (IFN-gamma [2]; anti-CD3 (12.5 ng/ml) + anti-CD28 (1/3x10^5), 10^-8 M, vehicle 8406.18±1000.00, p 0.017): 7122.07±950 (0.017) pg/mL
IFN-gamma production in PMBC from patients with rheumatoid arthritis (IFN-gamma [2]; medium, 10^-6 M, vehicle 145.49±28.00, p 0.779): 193.68±45.00 (0.779) pg/mL
IFN-gamma production in PMBC from patients with rheumatoid arthritis (IFN-gamma [2]; medium, 10^-7 M, vehicle 145.49±28.00, p 0.208): 203.72±50.00 (0.208) pg/mL
IFN-gamma production in PMBC from patients with rheumatoid arthritis (IFN-gamma [2]; medium, 10^-8 M, vehicle 145.49±28.00, p 0.674): 235.10±60.00 (0.674) pg/mL
IL-8 production in PMBC from patients with rheumatoid arthritis (IL-8; LPS (10µg/ml), 10^-6 M, vehicle 150759.65±22966.06, p 0.012): 185536.78±22000.00 (0.012) pg/mL
IL-8 production in PMBC from patients with rheumatoid arthritis (IL-8; LPS (10µg/ml), 10^-7 M, vehicle 150759.65±22966.06, p 0.208): 174156.23±13385.66 (0.208) pg/mL
IL-8 production in PMBC from patients with rheumatoid arthritis (IL-8; LPS (10µg/ml), 10^-8 M, vehicle 150759.65±22966.06, p 0.012): 184541.37±21500.00 (0.012) pg/mL
IL-8 production in PMBC from patients with rheumatoid arthritis (IL-8; anti-CD3 (12.5 ng/ml) + anti-CD28 (1/3x10^5), 10^-6 M, vehicle 118017.97±21116.00, p 0.263): 124576.09±14605.02 (0.263) pg/mL
IL-8 production in PMBC from patients with rheumatoid arthritis (IL-8; anti-CD3 (12.5 ng/ml) + anti-CD28 (1/3x10^5), 10^-7 M, vehicle 118017.97±21116.00, p 0.889): 109607.00±18310.15 (0.889) pg/mL
IL-8 production in PMBC from patients with rheumatoid arthritis (IL-8; anti-CD3 (12.5 ng/ml) + anti-CD28 (1/3x10^5), 10^-8 M, vehicle 118017.97±21116.00, p 0.575): 121587.88±16117.25 (0.575) pg/mL
IL-8 production in PMBC from patients with rheumatoid arthritis (IL-8; medium, 10^-6 M, vehicle 57877.64±11143.52, p 0.208): 98012.08±8395.97 (0.208) pg/mL
IL-8 production in PMBC from patients with rheumatoid arthritis (IL-8; medium, 10^-7 M, vehicle 57877.64±11143.52, p 0.161): 96498.50±10784.62 (0.161) pg/mL
IL-8 production in PMBC from patients with rheumatoid arthritis (IL-8; medium, 10^-8 M, vehicle 57877.64±11143.52, p 0.123): 93977.67±9247.38 (0.123) pg/mL
IL-10 production by PMBC from healthy volunteers (IL-10; LPS (10µg/ml), 10^-6 M, vehicle 2342.20±384.02, p 0.507): 2420.68±455.50 (0.507) pg/mL
IL-10 production by PMBC from healthy volunteers (IL-10; LPS (10µg/ml), 10^-7 M, vehicle 2342.20±384.02, p 0.507): 2392.99±427.86 (0.507) pg/mL
IL-10 production by PMBC from healthy volunteers (IL-10; LPS (10µg/ml), 10^-8 M, vehicle 2342.20±384.02, p 0.701): 2389.63±366.01 (0.701) pg/mL
IL-10 production by PMBC from healthy volunteers (IL-10; anti-CD3 (12.5 ng/ml) + anti-CD28 (1/3x10^5), 10^-6 M, vehicle 1042.64±162.36, p 0.507): 1239.47±251.24 (0.507) pg/mL
IL-10 production by PMBC from healthy volunteers (IL-10; anti-CD3 (12.5 ng/ml) + anti-CD28 (1/3x10^5), 10^-7 M, vehicle 1042.64±162.36, p 0.382): 1132.69±213.32 (0.382) pg/mL
IL-10 production by PMBC from healthy volunteers (IL-10; anti-CD3 (12.5 ng/ml) + anti-CD28 (1/3x10^5), 10^-8 M, vehicle 1042.64±162.36, p 0.507): 1122.51±211.03 (0.507) pg/mL
IL-10 production by PMBC from healthy volunteers (IL-10; medium, 10^-6 M, vehicle 490.46±87.16, p 0.753): 559.06±112.20 (0.753) pg/mL
IL-10 production by PMBC from healthy volunteers (IL-10; medium, 10^-7 M, vehicle 490.46±87.16, p 0.701): 609.10±108.74 (0.701) pg/mL
IL-10 production by PMBC from healthy volunteers (IL-10; medium, 10^-8 M, vehicle 490.46±87.16, p 0.861): 578.66±106.20 (0.861) pg/mL
Mean fluorescence intensity of surface CD62L expression in monocytes (MFI) (CD62L; 10^-6 M, p 0.721): 63.90±8.52 (0.721)
Mean fluorescence intensity of surface CD62L expression in monocytes (MFI) (CD62L; 10^-7 M, p 0.878): 72.30±10.21 (0.878)
